Results: US20240116897A1, “BENZOTHIAZOLE AND BENZIMIDAZOLE DERIVATIVES, PHARMACEUTICALLY ACCEPTABLE SALT THEREOF, PREPARATION METHOD THEREFOR, AND PHARMACEUTICAL COMPOSITION COMPRISING SAME AS ACTIVE INGREDIENT” (KOREA RESEARCH INSTITUTE OF CHEMICAL TECHNOLOGY, priority 2021, published 2024)

What was measured:
SIRT7 protein = target: T1, SIRT7 protein (Homo sapiens, UniProt Q9NRC8); assay: SIRT Glo assay, inhibitory activity against Sirt7; format: biochemical; details: 10 μM compound
T1 construct: purchased SignalChem S41-30H
T1 sequence (Q9NRC8 1-400): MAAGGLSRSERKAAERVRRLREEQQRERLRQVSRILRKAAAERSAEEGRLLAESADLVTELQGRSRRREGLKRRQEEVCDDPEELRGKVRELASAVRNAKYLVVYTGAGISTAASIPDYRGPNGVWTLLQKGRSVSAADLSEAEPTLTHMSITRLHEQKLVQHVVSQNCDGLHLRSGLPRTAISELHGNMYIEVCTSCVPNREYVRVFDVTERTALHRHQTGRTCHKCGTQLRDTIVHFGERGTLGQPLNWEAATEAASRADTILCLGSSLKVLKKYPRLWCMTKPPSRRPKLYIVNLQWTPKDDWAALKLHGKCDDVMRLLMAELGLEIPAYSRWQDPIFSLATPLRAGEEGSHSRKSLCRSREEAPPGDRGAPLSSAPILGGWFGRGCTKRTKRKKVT
Outline: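 Recombinant SIRT7 (20 ng per well) pre-incubated 30 min with compound in SIRT Glo buffer, then SIRT Glo substrate added for 1 h before luminescence reading. Background-subtracted signal expressed as % inhibition relative to no-compound control.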

[1] = test system: COLO32ODM tumor xenograft; assay: In vivo mouse tumor xenograft, COLO32ODM; details: nude mice, 3 weeks
Protocol: The compounds of the present invention were administered to mouse tumor xenograft to measure tumor suppression in vivo test. BALB/C-nu female 5-week-old mice were introduced. COLO32ODM and SW480 cells, which are human colorectal cancer cells, were isolated from culture flasks using trypsin and prepared at a concentration of 1×10^8 cell/ml. It was mixed with Matrigel (Gibco, Cat. No. A14133-02) at a ratio of 1:1 and injected 100 μL subcutaneously into the dorsal side of 5-week-old mice. After 2 weeks, when the volume of the mouse tumor reached 100 mm^3, oral administration of the compound was started 5 times a week. (Day 0), After that, it was conducted for 3 weeks.
In the negative control group, 0.1% Carboxylmethyl cellulose and 0.2% tween 80 solution were administered instead of the compound according to the same administration route and administration frequency. 6 mice were used for each experimental group (FIG. 3). The size of the tumor was measured in the long axis (length, L) and the short axis (width, W) once every 3 days, and the tumor volume (mm^3) was calculated as (L×W×W)/2 thereby the average for each group was calculated. Statistical processing was performed using the GraphPad Prism6 program, and a p-value of less than 0.05 was considered significant.
A 5-week-old nude mouse whose thymus was removed and whose T cells were reduced and whose immune system was suppressed was introduced, and human colorectal cancer cell lines, COLO32ODM and SW480, were subcutaneously injected.

| inhibition at 10 µM (SIRT7 protein) [%] | SMILES | tumor size compared to the control group [1] |
| --- | --- | --- |
| 100 | CCNC(=O)N1CCC(=Cc2ccc(C(=O)Nc3nc4ccccc4s3)c(Cl)c2)CC1 [Compound 1-105, 4-(4-(benzo[d]thiazol-2-ylcarbamoyl)-3-chlorobenzylidene)-N-ethylpiperidine-1-carboxamide] | reduced |
| 99 | O=C(Nc1nc2ccccc2s1)c1ccc(C=C2CCN(C(=O)Nc3ccccc3)CC2)cc1Cl [Compound 1-106, 4-(4-(benzo[d]thiazol-2-ylcarbamoyl)-3-chlorobenzylidene)-N-phenylpiperidine-1-carboxamide] | reduced |
| 28 | O=C(Nc1nc2ccccc2s1)c1ccc(CC2CCN(C(=O)Nc3ccccc3)CC2)cc1C(F)(F)F [Compound 1-85, 4-(4-(benzo[d]thiazol-2-ylcarbamoyl)-3-(trifluoromethyl)benzyl)-N-phenylpiperidine-1-carboxamide] | – |
| 52 | Cc1ccc(Oc2ccc(C(=O)Nc3nc4ccccc4s3)cc2)nn1 [Compound 1-15, N-(benzo[d]thiazol-2-yl)-4-((6-methylpyridazin-3-yl)oxy)benzamide] | – |
| 10 | CC(C)(C)OC(=O)N1CC=C(c2ccc(C(=O)Nc3nc4ccccc4s3)cc2)CC1 [Compound 1-74, tert-butyl 4-(4-(benzo[d]thiazol-2-ylcarbamoyl)phenyl)-3,6-dihydropyridine-1-(2H)-carboxylate] | – |
| 72 | CC(C)(C)OC(=O)N1C[C@@H]2C[C@H]1CN2Cc1ccc(C(=O)Nc2nc3ccccc3s2)cc1 [Compound 1-25, Tert-Butyl (1S,4S)-5-(4-(benzo[d]thiazol-2-ylcarbamoyl)benzyl)-2,5-diazabicyclo[2.2.1]heptane-2-carboxylate] | – |
| 100 | O=C(Nc1nc2ccccc2s1)c1c(F)cc(C=C2CCN(C(=O)Nc3ccccc3)CC2)cc1F [Compound 1-101, 4-(4-(benzo[d]thiazol-2-ylcarbamoyl)-3,5-difluorobenzylidene)-N-phenylpiperidine-1-carboxamide] | – |
| 87 | CC(C)NC(=O)N1CCN(Cc2ccc(C(=O)Nc3nc4ccccc4s3)cc2)CC1 [Compound 1-40, 4-(4-(benzo[d]thiazol-2-ylcarbamoyl)benzyl)-N-isopropylpiperazine-1-carboxamide] | – |
| 91 | O=C(Nc1nc2ccccc2s1)c1ccc(C=C2CCNCC2)c(Cl)c1 [Compound 1-96, N-(benzo[d]thiazol-2-yl)-3-chloro-4-(piperidin-4-ylidenemethyl)benzamide] | – |
| 15 | O=C(Nc1nc2ccccc2s1)c1ccc(CN2CCNCC2)cc1 [Compound 1-31, N-(benzo[d]thiazol-2-yl)-4-(piperazin-1-ylmethyl)benzamide] | – |
| 89 | O=C(Nc1nc2ccccc2s1)c1ccc(CN2CCN(C(=O)Nc3ccc(Cl)cc3)CC2)cc1 [Compound 1-49, 4-(4-(benzo[d]thiazol-2-ylcarbamoyl)benzyl)-N-(4-chlorophenyl)piperazine-1-carboxamide] | – |
| 21 | O=C(Nc1nc2ccccc2[nH]1)c1ccc(OCc2ccc(C(F)(F)F)cc2)cc1 [Compound 1-13, N-(1H-benzo[d]imidazol-2-yl)-4-((4-(trifluoromethyl)benzyl)oxy)benzamide] | – |
| 85 | CCc1ccc(NC(=O)N2CCN(Cc3ccc(C(=O)Nc4nc5ccccc5s4)cc3)CC2)cc1 [Compound 1-52, 4-(4-(benzo[d]thiazol-2-ylcarbamoyl)benzyl)-N-(4-ethylphenyl)piperazine-1-carboxamide] | – |
| 97 | O=C(Nc1nc2ccccc2s1)c1ccc(C=C2CCN(C(=O)c3ccccc3)CC2)cc1F [Compound 1-92, N-(benzo[d]thiazol-2-yl)-4-((1-benzoylpiperidin-4-ylidene)methyl)-2-fluorobenzamide] | – |
| 95 | O=C(Nc1nc2ccccc2s1)c1ccc(CN2CCN(C(=O)Nc3ccc(F)cc3)CC2)cc1 [Compound 1-44, 4-(4-(benzo[d]thiazol-2-ylcarbamoyl)benzyl)-N-(4-fluorophenyl)piperazine-1-carboxamide] | – |
| 21 | O=C(Nc1nc2ccccc2[nH]1)c1cccc(Oc2ncc(F)cn2)c1 [Compound 1-11, N-(1H-benzo[d]imidazol-2-yl)-3-((5-fluoropyrimidin-2-yl)oxy)benzamide] | – |
| 5 | Cc1ccc(Oc2ccc(C(=O)Nc3nc4ccc(Br)cc4s3)cc2)nn1 [Compound 1-18, N-(6-bromobenzo[d]thiazol-2-yl)-4-((6-methylpyridazin-3-yl)oxy)benzamide] | – |
| 27 | CC(C)(C)OC(=O)N1CC2(CCN(Cc3ccc(C(=O)Nc4nc5ccccc5s4)cc3)CC2)C1 [Compound 1-27, tert-butyl 7-(4-(benzo[d]thiazol-2-ylcarbamoyl)benzyl)-2,7-diazaspiro[3.5]nonane-2-carboxylate] | – |
| 97 | O=C(Nc1nc2ccccc2s1)c1ccc(C=C2CCN(C(=O)Nc3ccccc3)CC2)cc1F [Compound 1-89, 4-(4-(benzo[d]thiazol-2-ylcarbamoyl)-3-fluorobenzylidene)-N-phenylpiperidine-1-carboxamide] | – |
| 63 | CCc1cnc(Oc2ccc(C(=O)Nc3nc4ccccc4[nH]3)cc2)nc1 [Compound 1-9, N-(1H-benzo[d]imidazol-2-yl)-4-((5-ethylpyrimidin-2-yl)oxy)benzamide] | – |
| 41 | O=C(Nc1nc2ccccc2s1)c1ccc(Oc2ncc(F)cn2)cc1 [Compound 1-21, N-(benzo[d]thiazol-2-yl)-4-((5-fluoropyrimidin-2-yl)oxy)benzamide] | – |
| 5 | O=C(Nc1nc2ccccc2s1)c1ccc(C2=CCN(C(=O)Nc3ccc(C(F)(F)F)cc3)CC2)cc1 [Compound 1-76] | – |
| 40 | CCNC(=O)N1C[C@@H]2C[C@H]1CN2Cc1ccc(C(=O)Nc2nc3ccccc3s2)cc1 [Compound 1-72, (1S,4S)-5-(4-(benzo[d]thiazol-2-ylcarbamoyl)benzyl)-N-ethyl-2,5-diazabicyclo[2.2.1]heptane-2-carboxamide] | – |
| 12 | CC(C)(C)OC(=O)N1CCN(Cc2ccc(C(=O)Nc3nc4ccccc4[nH]3)cc2)CC1 [Compound 1-1, Tert-Butyl 4-(4-((1H-benzo[d]imidazol-2-yl)carbamoyl)benzyl)piperazine-1-carboxylate] | – |
| 83 | O=C(Nc1nc2ccccc2s1)c1ccc(CN2CCC3(CC2)OCCO3)cc1 [Compound 1-29, 4-((1,4-dioxa-8-azaspiro[4.5]decan-8-yl)methyl)-N-(benzo[d]thiazol-2-yl)benzamide] | – |
| 87 | O=C(Nc1nc2ccccc2s1)c1ccc(CN2CCN(C(=O)Nc3ccccc3Br)CC2)cc1 [Compound 1-58, 4-(4-(benzo[d]thiazol-2-ylcarbamoyl)benzyl)-N-(2-bromophenyl)piperazine-1-carboxamide] | – |
| 100 | O=C(Nc1nc2ccccc2s1)c1ccc(CN2CCN(C(=O)NCCl)CC2)cc1 [Compound 1-54, 4-(4-(benzo[d]thiazol-2-ylcarbamoyl)benzyl)-N-(chloromethyl)piperazine-1-carboxamide] | – |

| SMILES | inhibition at 10 µM (SIRT7 protein) [%] | tumor size compared to the control group [1] |
| --- | --- | --- |
| CCN1CCN(Cc2ccc(C(=O)Nc3nc4ccccc4s3)cc2)CC1 [Compound 1-61, N-(benzo[d]thiazol-2-yl)-4-((4-ethylpiperazin-1-yl)methyl)benzamide] | 3 | – |
